The record followed here is patent US9346761B2, “Arginine methyltransferase inhibitors and uses thereof” (Epizyme, Inc., priority 2013, dated 2016).

Structures are written as SMILES. A value given as a limit tells only on which side of the number the result lay.

In assay [1] the target is T1, Full-length human PRMT6 (Homo sapiens, UniProt Q96LA8).
T1 construct: Flag-PRMT6-His was eluted with 200 ug/ml FLAG peptide in the same buffer; made in house; host or cells: HEK 293F cells (BacMam virus, pFastBacMam)
As to the kind of experiment: PRMT6 biochemical assay (3H-SAM Flashplate, peptide substrate). The gist of the method:
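Flag-PRMT6-His from baculovirus-infected cells, preincubated with compound 30 min at room temperature, then SAM/3H-SAM and biotinylated H4 36-50 peptide added; 20 mM Bicine pH 7.6, TCEP, BSG, Tween 20. Quenched with cold SAM, captured on streptavidin Flashplates; % inhibition from SAH/DMSO controls, 3- or 4-parameter IC50 fit.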

Assay [2] concerns the target T2, Full-length human PRMT8 (Homo sapiens, UniProt Q9NR22).
T2 construct: Full-length human PRMT8 (NM_019854.4) isoform 1 transcript clone; made in house
As to the kind of experiment: PRMT8 biochemical assay (3H-SAM Flashplate, peptide substrate). From the text:
General Materials. S-adenosylmethionine (SAM), S-adenosylhomocysteine (SAH), bicine, Tween20, dimethylsulfoxide (DMSO), bovine skin gelatin (BSG), isopropyl-β-D-thiogalactopyranoside (IPTG), and Tris(2-carboxyethyl)phosphine hydrochloride solution (TCEP) were purchased from Sigma-Aldrich at the highest level of purity possible. ^3H-SAM was purchase from American Radiolabeled Chemicals with a specific activity of 80 Ci/mmol. 384-well streptavidin Flashplates were purchased from PerkinElmer.
Substrates. Peptide representative of human histone H4 residues 31-45 was synthesized with an N-terminal linker-affinity tag motif and a C-terminal amide cap by 21st Century Biochemicals.
Protein Expression. E. coli (BL21(DE3) Gold, Stratagene) made competent by the CaCl2 method were transformed with the PRMT8 construct and ampicillin selection. Protein over-expression was accomplished by growing the PRMT8 expressing E. coli clone and inducing expression with 0.3 mM IPTG at 16° C. The culture was grown for 12 hours, harvested by centrifugation, and stored at −80° C. for purification.
Protein Purification. […] GST-tagged PRMT8 was eluted with 50 mM Tris, 2 mM glutathione, pH 7.8. Pooled fractions were cleaved by thrombin (10 U) and dialysed in buffer A. GST was removed by reloading the cleaved protein sample onto glutathione sepharose column and PRMT8 was collected in the flow-through fractions. PRMT8 was purified further by ceramic hydroxyapatite chromatography. The column was washed with 50 mM phosphate buffer, 100 mM NaCl, 5% glycerol, 5 mM β-mercaptoethanol, pH 7.8 and PRMT8 was eluted by 100 mM phosphate in the same buffer. Protein was concentrated and buffer was exchanged to 50 mM Tris, 300 mM NaCl, 10% glycerol, 5 mM β-mercaptoethanol, pH 7.8 by ultrafiltration.
General Procedure for PRMT8 Enzyme Assays on Peptide Substrates. The assays were all performed in a buffer consisting of 20 mM Bicine (pH=7.6), 1 mM TCEP, 0.005% BSG, and 0.002% Tween 20, prepared on the day of use. […] DMSO (1 ul) was added to Columns 11, 12, 23, 24, rows A-H for the maximum signal control and 1 ul of SAH, a known product and inhibitor of PRMT8, was added to columns 11, 12, 23, 24, rows I-P for the minimum signal control. A cocktail (40 ul) containing the PRMT8 enzyme was added by Multidrop Combi (Thermo-Fisher). The compounds were allowed to incubate with PRMT8 for 30 min at room temperature, then a cocktail (10 ul) containing ^3H-SAM and peptide was added to initiate the reaction (final volume=51 ul). […] The assays were stopped by the addition of non-radiolabeled SAM (10 ul) to a final concentration of 400 uM, which dilutes the ^3H-SAM to a level where its incorporation into the peptide substrate is no longer detectable. 50 ul of the reaction in the 384-well polypropylene plate was then transferred to a 384-well Flashplate and the biotinylated peptides were allowed to bind to the streptavidin surface for at least 1 hour before being washed once with 0.1% Tween20 in a Biotek ELx405 plate washer. The plates were then read in a PerkinElmer TopCount plate reader to measure the quantity of ^3H-labeled peptide bound to the Flashplate surface, measured as disintegrations per minute (dpm) or alternatively, referred to as counts per minute (cpm).
Where dpm=disintegrations per minute, cmpd=signal in assay well, and min and max are the respective minimum and maximum signal controls.
Where top and bottom are the normally allowed to float, but may be fixed at 100 or 0 respectively in a 3-parameter fit. The Hill Coefficient normally allowed to float but may also be fixed at 1 in a 3-parameter fit. Y is the % inhibition and X is the compound concentration.

T1 sequence (Q96LA8 with tags, fused parts or gaps): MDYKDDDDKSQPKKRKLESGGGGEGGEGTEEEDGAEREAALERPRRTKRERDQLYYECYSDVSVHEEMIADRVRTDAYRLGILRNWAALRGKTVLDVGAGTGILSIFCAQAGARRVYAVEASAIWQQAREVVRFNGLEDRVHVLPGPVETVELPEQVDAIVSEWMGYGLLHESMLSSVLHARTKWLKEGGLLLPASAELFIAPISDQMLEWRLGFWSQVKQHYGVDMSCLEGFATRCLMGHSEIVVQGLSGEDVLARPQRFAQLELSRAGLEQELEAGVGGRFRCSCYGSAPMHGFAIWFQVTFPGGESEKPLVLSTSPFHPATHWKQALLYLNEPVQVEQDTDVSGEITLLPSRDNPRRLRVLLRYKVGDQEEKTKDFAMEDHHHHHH
T2 sequence (Q9NR22 whole entry, canonical isoform): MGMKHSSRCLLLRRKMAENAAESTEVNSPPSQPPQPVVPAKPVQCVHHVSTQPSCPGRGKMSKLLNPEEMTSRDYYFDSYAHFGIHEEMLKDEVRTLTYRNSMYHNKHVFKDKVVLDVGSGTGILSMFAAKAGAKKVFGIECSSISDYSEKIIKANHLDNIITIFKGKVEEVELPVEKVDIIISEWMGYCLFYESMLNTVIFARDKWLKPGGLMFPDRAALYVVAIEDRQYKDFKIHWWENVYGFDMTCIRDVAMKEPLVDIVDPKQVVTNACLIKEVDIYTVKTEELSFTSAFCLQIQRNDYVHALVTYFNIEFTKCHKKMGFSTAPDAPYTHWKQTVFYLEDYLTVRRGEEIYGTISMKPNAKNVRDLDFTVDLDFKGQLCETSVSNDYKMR

In general, IC50 refers to the concentration that gives 50% inhibition. Read a high IC50 as a need for much substance. `CN(CCN)Cc1c[nH]nc1-c1ccc(C(F)(F)F)c(F)c1` [Compound 141]: the IC50 is below 100 nM in assay [1] and 101 to 1000 nM in assay [2].

In the case of `COc1cc(-c2n[nH]cc2CN(C)CCN)ccc1F` [Compound 142], the IC50 in assay [1] is below 100 nM; in assay [2] it was 101 to 1000 nM.

On to `CCN(CC)C(=O)c1ccc(-c2n[nH]cc2CN(C)CCN)cc1` [Compound 143], for which the IC50 in assay [1] fell in the range of 101 to 1000 nM; in assay [2], 1010 to 3000 nM.

As for `CC(C)Oc1ccc(-c2c[nH]nc2CN(C)CCN)cc1F` [Compound 144], the IC50 in assay [1] was below 100 nM; in assay [2] it was 101 to 1000 nM.

Turning to `CN(CCN)Cc1n[nH]cc1-c1ccc(C2CCOCC2)cc1` [Compound 145], the IC50 was below 100 nM in assay [1] and 101 to 1000 nM in assay [2].

Take `COc1ccc(-c2n[nH]cc2CN(C)CCN)c(Cl)c1` [Compound 146]: the IC50 is below 100 nM in assay [1] and 1010 to 3000 nM in assay [2].

Take `CN(CCN)Cc1c[nH]nc1-c1cc(C#N)ccc1Cl` [Compound 147]: the half-maximal inhibitory concentration (IC50) was below 100 nM in assay [1] and above 10000 nM in assay [2].

Turning to `CN(CCN)Cc1c[nH]nc1-c1ccc(C(F)(F)F)cc1F` [Compound 148], the IC50 in assay [1] was below 100 nM; in assay [2] it was 101 to 1000 nM.

As for `CN(CCN)Cc1c[nH]nc1-c1cccc(N(C)C)c1` [Compound 149], the IC50 in assay [1] was below 100 nM; in assay [2], 101 to 1000 nM.

As to `CCOC(=O)c1cccc(-c2n[nH]cc2CN(C)CCN)c1` [Compound 150], the IC50 is below 100 nM in assay [1] and 101 to 1000 nM in assay [2].

Consider `COc1cc(F)ccc1-c1n[nH]cc1CN(C)CCN` [Compound 151], for which the IC50 in assay [1] was 101 to 1000 nM; in assay [2] it was 1010 to 3000 nM.

`Cc1cc(F)ccc1-c1n[nH]cc1CN(C)CCN` [Compound 152]: the results for the IC50 in assay [1] and in assay [2] were below 100 nM and 101 to 1000 nM, respectively.

In the case of `COc1ccc(-c2n[nH]cc2CN(C)CCN)cc1` [Compound 153], the results for the IC50 in assay [1] and in assay [2] were below 100 nM and 101 to 1000 nM, respectively.

As to `COc1ccc(-c2n[nH]cc2CN(C)CCN)c(C(F)(F)F)c1` [Compound 154], the results for the IC50 in assay [1] and in assay [2] were 101 to 1000 nM and 3010 to 10000 nM, respectively.

`COc1ccc(-c2n[nH]cc2CN(C)CCN)c(C)c1` [Compound 155]: the IC50 is below 100 nM in assay [1] and 101 to 1000 nM in assay [2].

Turning to `CN(CCN)Cc1c[nH]nc1-c1cc(Cl)ccc1F` [Compound 156], the IC50 was below 100 nM in assay [1] and 1010 to 3000 nM in assay [2].

On to `COc1ccc(Cl)cc1-c1n[nH]cc1CN(C)CCN` [Compound 157], for which the IC50 in assay [1] lay within 101 to 1000 nM; in assay [2] it was 3010 to 10000 nM.

For the compound `Cc1ccc(C#N)cc1-c1n[nH]cc1CN(C)CCN` [Compound 158], the IC50 in assay [1] is 101 to 1000 nM; in assay [2], above 10000 nM.

On to `Cc1ccc(F)cc1-c1n[nH]cc1CN(C)CCN` [Compound 159], for which the IC50 in assay [1] is below 100 nM; in assay [2], 101 to 1000 nM.

For the compound `COc1ccc(F)cc1-c1n[nH]cc1CN(C)CCN` [Compound 160], the values for the IC50 in assay [1] and in assay [2] were 101 to 1000 nM and 3010 to 10000 nM, respectively.

Regarding `Cc1ccccc1-c1n[nH]cc1CN(C)CCN` [Compound 161], the IC50 in assay [1] was below 100 nM; in assay [2], 1010 to 3000 nM.

As to `Cc1ccc(-c2n[nH]cc2CN(C)CCN)cc1` [Compound 162], the IC50 in assay [1] is below 100 nM; in assay [2], 101 to 1000 nM.

In the case of `CCN(C)C(=O)c1ccc(-c2n[nH]cc2CN(C)CCN)cc1` [Compound 163], the IC50 in assay [1] was below 100 nM; in assay [2] it was 1010 to 3000 nM.

`CC(C)CN(C)C(=O)c1ccc(-c2n[nH]cc2CN(C)CCN)cc1` [Compound 164]: the results for the IC50 in assay [1] and in assay [2] were below 100 nM and 1010 to 3000 nM, respectively.

As to `CCOc1ccc(-c2n[nH]cc2CN(C)CCN)cc1` [Compound 166], the IC50 in assay [1] was below 100 nM; in assay [2], 101 to 1000 nM.

Turning to `COCCOc1ccc(-c2n[nH]cc2CN(C)CCN)cc1` [Compound 167], the half-maximal inhibitory concentration (IC50) was below 100 nM in assay [1] and 101 to 1000 nM in assay [2].

Consider `Cc1[nH]nc(-c2ccc(F)cc2)c1CN(C)CCN` [Compound 169], for which the IC50 in assay [1] is below 100 nM; in assay [2] it was 1010 to 3000 nM.

In the case of `CC(C)Cc1ccc(-c2c[nH]nc2CN(C)CCN)cc1` [Compound 170], the results for the IC50 in assay [1] and in assay [2] were below 100 nM and 101 to 1000 nM, respectively.

Consider `NCCN(CCO)Cc1c[nH]nc1-c1ccc(F)cc1` [Compound 171], for which the IC50 in assay [1] and in assay [2] was 1010 to 3000 nM in each case.

In the case of `CN(CCN)Cc1c[nH]nc1-c1ccc(OCCN2CCOCC2)cc1` [Compound 172], the IC50 is below 100 nM in assay [1] and 3010 to 10000 nM in assay [2].

With `CN(CCN)Cc1c[nH]nc1-c1ccc2c(c1)NC(=O)CO2` [Compound 173], the results for the IC50 in assay [1] and in assay [2] were below 100 nM and 3010 to 10000 nM, respectively.
